Where two headings read alike, the source gives them in different places.
Experiments:
[1] = Solubility of amitraz in various solvents; assay type: physicochemical
Experimental: Solutions of amitraz in certain solvents at high concentration result in the appearance of crystals over time. […] The solubility of amitraz in butyl acetate is lower then in anisole, MIK and ethyl benzoate. […] Additionally, when amitraz (25%) in butyl acetate formulations were stored at 50° C. in a chamber, they evaporated slightly. […] Again, lowering concentration to 20% and addition of co-solvents with higher solubility of amitraz avoided crystallization of amitraz. Unexpectedly, this addition of co-solvents caused the effects described below in Example 9.

[2] = tested on: adult brown dog ticks (Rhipicephalus sanguineus); test: Tick DMSO contact assay, Compound 1 with reduced dosages of amitraz, Example 16; assay type: in vivo
Experimental: Scintillation vials were treated with commercial and experimental compounds using the same procedure described in Example 12 above. The treated vials were used to determine the contact toxicity of compounds against adult brown dog ticks (Rhipicephalus sanguineus). The ticks were supplied by Ecto Services Inc. Henderson, N.C.
Unfed adult ticks were released into a metal pan and 10 living ticks were aspirated into each vial. […] Two replicates were tested for each treatment and the results were averaged. Ticks were stimulated by gently exhaling in the vials. Within the same time period, the addition of amitraz to an equal dosage of compound 1 increased mean mortality.

[3] = 14C radiolabeled drug, spot-on administration, beagle dogs; cited from earlier work
[4] = tested on: ticks (Rhipicephalus sanguineus); test: Study A: tick efficacy of Compound 1 spot-on formulations in dogs; assay type: in vivo
Experimental: An initial clinical study was conducted to test the efficacy of Compound 1 (3-cyano-1-(2-chloro-6-fluoro-4-trifluoromethylphenyl)-4-dichlorofluoromethylsulfinyl-5-methyl-1H-pyrazole) against ticks and fleas in various test formulations. Five test groups and an untreated control were evaluated. Each test group included six dogs. Compound was dissolved in a solvent or a combination of two or more solvents at 10% w/w. Test articles were formulated as topical spot-on solutions containing compound 1, 10% w/v in a solvent or a combination of solvents as described above. Dogs were infested with approximately 50 ticks (Rhipicephalus sanguineus) on days −1, 7, 14, 21, 28, 35 and 42. Dogs were also infested with approximately 100 fleas (Ctenocephalides felis) on days −1, 8, 15, 22, 29, 36, and 43. Treatment was applied by parting the hair and applying the formulation directly onto the skin on one spot at the midline of the neck, between the base of the skull and the shoulder blades. The dose rate of each of the topical solutions was 0.1 ml/kg (10 mg/kg) body weight. The efficacy of compound 1 in various formulations is shown Table 2 below.
Negative values indicate % increase in tick counts relative to control.

[5] = 4 h, read-out: 4 hour % Mortality Rep 1
[6] = 4 h, read-out: 4 hour % Mortality Rep 2
[7] = 4 h, read-out: 4 hour Avg. % Mortality
[8] = 24 h, read-out: 24 hour % Mortality Rep 1
[9] = 24 h, read-out: 24 hour % Mortality Rep 2
[10] = 24 h, read-out: 24 hour Avg. % Mortality
[11] = 48 h, read-out: 48 hour % Mortality Rep 1
[12] = 48 h, read-out: 48 hour % Mortality Rep 2
[13] = 48 h, read-out: 48 hour Avg. % Mortality

## Cc1ccc(/N=C/N(C)/C=N/c2ccc(C)cc2C)c(C)c1 [Amitraz, amitraz]
[1]; in Acetone
  Solubility of amitraz (at room temperature, %): 37.87%
[1]; in Anisole (methoxybenzene)
  Solubility of amitraz (at room temperature, %): 45.54%
[1]; in Benzyl acetate
  Solubility of amitraz (at room temperature, %): 21.85%
[1]; in Benzyl benzoate
  Solubility of amitraz (at room temperature, %): 33.30%
[1]; in Butyl acetate
  Solubility of amitraz (at room temperature, %): 27.10%
[1]; in Ethyl benzoate
  Solubility of amitraz (at room temperature, %): 39.43%
[1]; in Methyl isobutyl ketone
  Solubility of amitraz (at room temperature, %): 36.72%
[2]; [5]
  mortality at 3.13 ppm: 0%
  mortality at 6.25 ppm: 0%
  mortality at 12.5 ppm: 0%
[2]; [6]
  mortality at 3.13 ppm: 0%
  mortality at 6.25 ppm: 0%
  mortality at 12.5 ppm: 0%
[2]; [7]
  mortality at 3.13 ppm: 0%
  mortality at 6.25 ppm: 0%
  mortality at 12.5 ppm: 0%
[2]; [8]
  mortality at 3.13 ppm: 0%
  mortality at 6.25 ppm: 0%
  mortality at 12.5 ppm: 0%
[2]; [9]
  mortality at 3.13 ppm: 0%
  mortality at 6.25 ppm: 0%
  mortality at 12.5 ppm: 0%
[2]; [10]
  mortality at 3.13 ppm: 0%
  mortality at 6.25 ppm: 0%
  mortality at 12.5 ppm: 0%
[2]; [11]
  mortality at 3.13 ppm: 0%
  mortality at 6.25 ppm: 0%
  mortality at 12.5 ppm: 0%
[2]; [12]
  mortality at 3.13 ppm: 0%
  mortality at 6.25 ppm: 0%
  mortality at 12.5 ppm: 0%
[2]; [13]
  mortality at 3.13 ppm: 0%
  mortality at 6.25 ppm: 0%
  mortality at 12.5 ppm: 0%

## N#Cc1nn(-c2c(Cl)cc(C(F)(F)F)cc2Cl)c(N)c1[S+]([O-])C(F)(F)F (stereo not shown) [fipronil, 5-amino-3-cyano-1-(2,6-dichloro-4-trifluoromethylphenyl)-4-trifluoromethylsulfinylpyrazole]
[3]
  time detected in the whole skin after treatment: up to 56 days

## Cc1c([S+]([O-])C(F)(Cl)Cl)c(C#N)nn1-c1c(F)cc(C(F)(F)F)cc1Cl (stereo not shown) [Compound 1, 3-cyano-1-(2-chloro-6-fluoro-4-trifluoromethylphenyl)-4-dichlorofluoromethylsulfinyl-5-methyl-1H-pyrazole]
[4]; Day 1, Trt. Group 2: 10 mg/kg in Butyl acetate/octyl acetate
  % Efficacy against ticks: 48.6%
[4]; Day 1, Trt. Group 3: 10 mg/kg in Diethylene glycol monoethyl ether (transcutol)/N-methyl-2-pyrrolidone
  % Efficacy against ticks: 59.0%
[4]; Day 1, Trt. Group 4: 10 mg/kg in Dipropylene glycol monomethyl ether/butyl acetate
  % Efficacy against ticks: 71.5%
[4]; Day 1, Trt. Group 5: 10 mg/kg in Diisopropyl adipate
  % Efficacy against ticks: 71.5%
[4]; Day 1, Trt. Group 6: 10 mg/kg in Triacetin
  % Efficacy against ticks: 80.7%
[4]; Day 2, Trt. Group 2: 10 mg/kg in Butyl acetate/octyl acetate
  % Efficacy against ticks: 67.6%
[4]; Day 2, Trt. Group 3: 10 mg/kg in Diethylene glycol monoethyl ether (transcutol)/N-methyl-2-pyrrolidone
  % Efficacy against ticks: 60.8%
[4]; Day 2, Trt. Group 4: 10 mg/kg in Dipropylene glycol monomethyl ether/butyl acetate
  % Efficacy against ticks: 72.0%
[4]; Day 2, Trt. Group 5: 10 mg/kg in Diisopropyl adipate
  % Efficacy against ticks: 86.0%
[4]; Day 2, Trt. Group 6: 10 mg/kg in Triacetin
  % Efficacy against ticks: 79.2%
[4]; Day 9, Trt. Group 2: 10 mg/kg in Butyl acetate/octyl acetate
  % Efficacy against ticks: 88.1%
[4]; Day 9, Trt. Group 3: 10 mg/kg in Diethylene glycol monoethyl ether (transcutol)/N-methyl-2-pyrrolidone
  % Efficacy against ticks: 78.1%
[4]; Day 9, Trt. Group 4: 10 mg/kg in Dipropylene glycol monomethyl ether/butyl acetate
  % Efficacy against ticks: 71.2%
[4]; Day 9, Trt. Group 5: 10 mg/kg in Diisopropyl adipate
  % Efficacy against ticks: 90.4%
[4]; Day 9, Trt. Group 6: 10 mg/kg in Triacetin
  % Efficacy against ticks: 83.1%
[4]; Day 16, Trt. Group 2: 10 mg/kg in Butyl acetate/octyl acetate
  % Efficacy against ticks: 88.7%
[4]; Day 16, Trt. Group 3: 10 mg/kg in Diethylene glycol monoethyl ether (transcutol)/N-methyl-2-pyrrolidone
  % Efficacy against ticks: 81.4%
[4]; Day 16, Trt. Group 4: 10 mg/kg in Dipropylene glycol monomethyl ether/butyl acetate
  % Efficacy against ticks: 90.5%
[4]; Day 16, Trt. Group 5: 10 mg/kg in Diisopropyl adipate
  % Efficacy against ticks: 83.2%
[4]; Day 16, Trt. Group 6: 10 mg/kg in Triacetin
  % Efficacy against ticks: 91.7%
[4]; Day 23, Trt. Group 2: 10 mg/kg in Butyl acetate/octyl acetate
  % Efficacy against ticks: 41.1%
[4]; Day 23, Trt. Group 3: 10 mg/kg in Diethylene glycol monoethyl ether (transcutol)/N-methyl-2-pyrrolidone
  % Efficacy against ticks: 52.2%
[4]; Day 23, Trt. Group 4: 10 mg/kg in Dipropylene glycol monomethyl ether/butyl acetate
  % Efficacy against ticks: 38.4%
[4]; Day 23, Trt. Group 5: 10 mg/kg in Diisopropyl adipate
  % Efficacy against ticks: 20.4%
[4]; Day 23, Trt. Group 6: 10 mg/kg in Triacetin
  % Efficacy against ticks: 89.1%
[4]; Day 30, Trt. Group 2: 10 mg/kg in Butyl acetate/octyl acetate
  % Efficacy against ticks: 64.0%
[4]; Day 30, Trt. Group 3: 10 mg/kg in Diethylene glycol monoethyl ether (transcutol)/N-methyl-2-pyrrolidone
  % Efficacy against ticks: 45.9%
[4]; Day 30, Trt. Group 4: 10 mg/kg in Dipropylene glycol monomethyl ether/butyl acetate
  % Efficacy against ticks: 71.7%
[4]; Day 30, Trt. Group 5: 10 mg/kg in Diisopropyl adipate
  % Efficacy against ticks: 78.2%
[4]; Day 30, Trt. Group 6: 10 mg/kg in Triacetin
  % Efficacy against ticks: 72.3%
[4]; Day 44, Trt. Group 2: 10 mg/kg in Butyl acetate/octyl acetate
  % Efficacy against ticks: −8.6%
[4]; Day 44, Trt. Group 3: 10 mg/kg in Diethylene glycol monoethyl ether (transcutol)/N-methyl-2-pyrrolidone
  % Efficacy against ticks: −10.8%
[4]; Day 44, Trt. Group 4: 10 mg/kg in Dipropylene glycol monomethyl ether/butyl acetate
  % Efficacy against ticks: −29.9%
[4]; Day 44, Trt. Group 5: 10 mg/kg in Diisopropyl adipate
  % Efficacy against ticks: 0.3%
[4]; Day 44, Trt. Group 6: 10 mg/kg in Triacetin
  % Efficacy against ticks: 47.8%
